According to patent US7842721B2, “Composition for treating cancer cells and synthetic method for the same” (Kaohsiung Medical University, priority 2007, dated 2010):
≈ marks a conversion by molar mass, not a printed value.

Experiments:
human cancer cell lines = assay: in vitro cytotoxic activities against several human cancer lines (panel summary); type: cell-based; conditions: for cytotoxic activity against cancer cell lines (in words): especially Hep3B and MDA-MB-231
Protocol: (§1) Human liver (HepG2 and Hep3B), breast (MCF-7 and MDA-MB-231), and lung (A549) cancer cell lines were propagated in RPMI-1640 medium supplement with 10% (v/v) FBS, 100 U/mL penicillin and 100 µg/mL streptomycin at 37° C. in a humidified atmosphere of 5% CO2 and 95% air. The culturing medium is changed every three days. Upon confluency, cells were subcultured to confluency, and used for experiments. The experimental period is determined according to the aim of experiment.
(§2) Cytotoxicity is measured by the MTT calorimetric method. Cells were seeded at densities of 5,000-10,000 cells/well in 96-well tissue culture plates. On day two, cells are treated with test compounds for another 72 hrs. After drug treatment, attached cells were incubated with MTT (0.5 mg/mL) for 1 hr and subsequently solubilized in DMSO. The absorbency at 550 nm is then measured using a microplate reader. The IC50 is the concentration of agent that reduces the cell viability by 50% under the experimental conditions, and the cytotoxic compound, Doxorubicin, is used as a positive control.
It is known that both the protoapigenone compound and its derivatives synthesized by a chemical method have cytotoxic effect against cancer cells, similar to nature protoapigenone compound extracted from a plant.

HepG2 = assay: MTT cytotoxicity assay, HepG2; type: cell-based, Human; conditions: for IC50 HepG2: human liver cancer cells, MTT, 72 hrs treatment
Protocol: as §1, §2

Hep3B = assay: MTT cytotoxicity assay, Hep3B; type: cell-based; conditions: human liver cancer cells, 72 hrs treatment
Protocol: as §1, §2

MDA-MB-231 = assay: MTT cytotoxicity assay, MDA-MB-231; type: cell-based; conditions: human breast cancer cells, 72 hrs treatment
Protocol: as §1, §2

MCF-7 = assay: MTT cytotoxicity assay, MCF-7; type: cell-based; conditions: human breast cancer cells, 72 hrs treatment
Protocol: as §1, §2

A549 = assay: MTT cytotoxicity assay, A549; type: cell-based; conditions: human lung cancer cells, 72 hrs treatment
Protocol: as §1, §2

[1] = system: human cancer cell lines (MCF-7, MDA-MB-231, Hep G2, Hep 3B, A549); conditions: compound derived from Thelypteris torresiana; Planta Medica 71:867-870, 2005; cited from earlier work

Q: With `O=C1C=CC(O)(c2cc(=O)c3ccccc3o2)C=C1` [Compound 8a, 2-(1-hydroxy-4-oxocyclohexa-2,5-dienyl)-4H-chromen-4-one] as the compound, how does the “cytotoxic activity against cancer cell lines (in words)” value (“cytotoxic activity” below) (human cancer cell lines) read?
A: Its value is “significant cytotoxic activity”.

Q: Which results are given for `COC1(c2cc(=O)c3ccccc3o2)C=CC(=O)C=C1` [Compound 8b, 1′-methoxyprotoflavonoen]?
A: IC50 HepG2 (HepG2): 10.95 µg/mL (≈ 40.8 µM); IC50 Hep3B (Hep3B): 1.45 µg/mL (≈ 5.41 µM); IC50 MDA-MB-231 (MDA-MB-231): 1.47 µg/mL (≈ 5.48 µM); IC50 MCF-7 (MCF-7): 2.14 µg/mL (≈ 7.98 µM); IC50 A549 (A549): >20 µg/mL

Q: For `O=C1C=CC(O)(c2cc(=O)c3c(O)cccc3o2)C=C1` [Compound 10a, 2-(1-hydroxy-4-oxocyclohexa-2,5-dienyl)-5-hydroxy-4H-chromen-4-one], which “cytotoxic activity” value (human cancer cell lines) is on record?
A: The value was “significant cytotoxic activity”.

Q: What does the source list for `COC1(c2cc(=O)c3c(C)cccc3o2)C=CC(=O)C=C1` [Compound 10b, 1′-methoxy-5-methylprotoflavonone]?
A: IC50 HepG2 (HepG2): 7.64 µg/mL (≈ 27.1 µM); IC50 Hep3B (Hep3B): 0.66 µg/mL (≈ 2.34 µM); IC50 MDA-MB-231 (MDA-MB-231): 0.54 µg/mL (≈ 1.91 µM); IC50 MCF-7 (MCF-7): 1.55 µg/mL (≈ 5.49 µM); IC50 A549 (A549): 16.36 µg/mL (≈ 58 µM)

Q: With `O=C1C=CC(O)(c2cc(=O)c3c(ccc4ccccc43)o2)C=C1` [Compound 15a, 3-(1-hydroxy-4-oxocyclohexa-2,5-dienyl)-1H-benzo[f]chromen-1-one] as the compound, how does the “cytotoxic activity” value (human cancer cell lines) read?
A: The value was “significant cytotoxic activity”.

Q: Which results are given for `COc1cc(O)c2c(=O)cc(C3(O)C=CC(=O)C=C3)oc2c1` [Compound 18a, 5-hydroxy-2-(1-hydroxy-4-oxocyclohexa-2,5-dienyl)-7-methoxy-4H-chromen-4-one]?
A: activity against the HepG2 human liver cancer cell line (in words) (HepG2; compared with most analogs): significantly enhanced activity; cytotoxic activity against cancer cell lines (in words) (human cancer cell lines): significant cytotoxic activity; potency against all five cancer cell lines, among the derivatives (in words) (human cancer cell lines; five cancer cell lines): highest potency

Q: With `O=C1C=CC(O)(c2cc(=O)c3c(O)cc(O)cc3o2)C=C1` [protoapigenone] as the compound, how does the “cytotoxic activities to human cancer cell lines (in words)” value [1] read?
A: Its value is “strong cytotoxic activities”.
